Several values for one entry are separate records, joined by “and”; a condition that tells them apart may be missing. Equal values may be shown once.
Assays:
[1] = tested on: Escherichia coli; test: Inhibitory activity (Enzyme inhibition index) against dihydropteroate synthase from Escherichia coli.
[2] = tested on: Escherichia coli; test: Inhibitory activity (apE=log(1/EII50)) against dihydropteroate synthase from Escherichia coli

EII50 [1] | apE [2] | SMILES
1.77 | -0.25 | COc1ccc(S(=O)(=O)c2ccc(N)cc2)c(C)c1
36.3 | -1.56 | Nc1ccc(S(=O)(=O)c2ccc([N+](=O)[O-])cc2[N+](=O)[O-])cc1
1.77 | -0.25 | COc1cc(C)c(S(=O)(=O)c2ccc(N)cc2)c(C)c1
1.59 | -0.2 | Nc1ccc(S(=O)(=O)c2ccc(N)cc2N)cc1
3.02 | -0.48 | COc1cc(C)cc(C)c1S(=O)(=O)c1ccc(N)cc1
3.31 | -0.52 | Nc1ccc(S(=O)(=O)c2c(Cl)cc(Cl)cc2Cl)cc1
0.51 and 0.25 | 0.29 and 0.59 | Cc1cc(O)cc(C)c1S(=O)(=O)c1ccc(N)cc1
3.21 | -0.51 | COc1ccc(S(=O)(=O)c2ccc(N)cc2)c(OC)c1
1.91 and 1.46 |  | Nc1ccc(S(=O)(=O)c2c(O)cc(O)cc2O)cc1
1.89 | -0.28 | Cc1ccc(S(=O)(=O)c2ccc(N)cc2)c(C)c1
1.69 | -0.23 | Cc1cc(C)c(S(=O)(=O)c2ccc(N)cc2)c(C)c1
2.24 | -0.35 | Nc1ccc(S(=O)(=O)c2ccc(Cl)cc2Cl)cc1
0.51 and 0.71 | 0.29 and 0.15 | Nc1ccc(S(=O)(=O)c2ccc(O)cc2O)cc1
2.64 | -0.42 | Nc1ccc(S(=O)(=O)c2ccc(N)cc2)cc1
0.23 and 0.34 | 0.66 and 0.47 | Cc1cc(O)ccc1S(=O)(=O)c1ccc(N)cc1
0.26 | 0.59 and 0.58 | Nc1ccc(S(=O)(=O)c2ccc(O)cc2Cl)cc1
12.9 | -1.11 | COc1cc(OC)c(S(=O)(=O)c2ccc(N)cc2)c(OC)c1

From ChEMBL document CHEMBL1124359, “Quantitative structure-activity relationships in dihydropteroate synthase inhibition by multisubstituted sulfones. Design and synthesis of some new derivatives with improved potency” (J Med Chem, 1989)
